Assay results as given in publication PMC10165273, “Itch receptor MRGPRX4 interacts with the receptor activity–modifying proteins” (The Journal of Biological Chemistry, 2023).
“And” between values parts separate entries of the source, which are not always exact repeats. Equal values may be shown once. Read-outs that look alike come from different tables or passages of the source.

Target: T1, MRGPRX4 + RAMP2 (Homo sapiens, UniProt Q96LA9)
T1 construct: expressed in transfected cells; host or cells: HEK293T
Experiment: IP1 accumulation, MRGPRX4 coexpressed with RAMP2
Type: cell-based
Parameters: key to response to agonist, X4:ramp2.I:2: % IP1: mock-transfected unstimulated = 0%, fully stimulated MRGPRX4 = 100%; key to IP1 Basal / response to agonist, X4:ramp2.I:0.25 / response to agonist, X4:ramp2.I:0.5 / response to agonist, X4:ramp2.I:1: % IP1; unstimulated mock = 0%, fully stimulated MRGPRX4 = 100%
Conditions: for activation at 100 µM / activation at 20 µM / activation at 4 µM / activation at 0.8 µM / activation at […] / activation at 0.032 µM: 2 h

[1] = MRGPRX4 + RAMP2 0.25 pg (Fig. S3), normalized per agonist
[2] = MRGPRX4 + RAMP2 0.5 pg (Fig. S3), normalized per agonist
[3] = MRGPRX4 + RAMP2 1 pg (Fig. S3), normalized per agonist
[4] = MRGPRX4 + RAMP2 2 pg (Fig. S3), normalized per agonist
[5] = Tet-On MRGPRX4:RAMP2 Ratio 1:0.5 (Fig. S5E)
[6] = Tet-On MRGPRX4:RAMP2 Ratio 1:0.75 (Fig. S5E)
[7] = Tet-On MRGPRX4:RAMP2 Ratio 1:1 (Fig. S5E)

T1 sequence (Q96LA9 whole entry): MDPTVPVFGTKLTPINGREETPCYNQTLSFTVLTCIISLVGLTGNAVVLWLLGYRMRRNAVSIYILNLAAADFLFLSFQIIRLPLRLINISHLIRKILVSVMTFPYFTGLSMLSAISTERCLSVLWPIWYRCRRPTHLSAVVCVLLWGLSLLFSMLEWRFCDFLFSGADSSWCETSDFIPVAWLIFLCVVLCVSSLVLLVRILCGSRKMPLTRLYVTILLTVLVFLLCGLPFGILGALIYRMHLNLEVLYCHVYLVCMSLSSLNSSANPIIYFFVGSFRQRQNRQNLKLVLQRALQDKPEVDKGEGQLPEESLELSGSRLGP

Molecule CC(C)[C@H]1CC[C@H](C(=O)N[C@H](Cc2ccccc2)C(=O)O)CC1 [Nateglinide] has an activation at 100 µM (log [nateglinide] (M) -4, MRGPRX4+RAMP2 0.75pg 1:0.75, Supplementary Figure 5e, read-out: IP1 accumulation (normalized)) of 67.4%, an activation at 100 µM (log [nateglinide] (M) -4, MRGPRX4+RAMP2 1pg 1:1, Supplementary Figure 5e, 5g, read-out: IP1 accumulation (normalized)) of 56.4% and an activation at 20 µM (log [nateglinide] (M) -4.69897, MRGPRX4+RAMP2 0.5pg 1:0.5, Supplementary Figure 5e, read-out: IP1 accumulation (normalized)) of 67.3%. The activation at 20 µM (log [nateglinide] (M) -4.69897, MRGPRX4+RAMP2 0.75pg 1:0.75, Supplementary Figure 5e, read-out: IP1 accumulation (normalized)) was 50.8%, the activation at 20 µM (log [nateglinide] (M) -4.69897, MRGPRX4+RAMP2 1pg 1:1, Supplementary Figure 5e, 5g, read-out: IP1 accumulation (normalized)) was 31.2% and the activation at 4 µM (log [nateglinide] (M) -5.39794, MRGPRX4+RAMP2 0.5pg 1:0.5, Supplementary Figure 5e, read-out: IP1 accumulation (normalized)) was 27.4%. For the same molecule, the activation at 4 µM (log [nateglinide] (M) -5.39794, MRGPRX4+RAMP2 0.75pg 1:0.75, Supplementary Figure 5e, read-out: IP1 accumulation (normalized)) was 22.7%, the activation at 4 µM (log [nateglinide] (M) -5.39794, MRGPRX4+RAMP2 1pg 1:1, Supplementary Figure 5e, 5g, read-out: IP1 accumulation (normalized)) was 15% and the activation at 0.8 µM (log [nateglinide] (M) -6.09691, MRGPRX4+RAMP2 0.5pg 1:0.5, Supplementary Figure 5e, read-out: IP1 accumulation (normalized)) was 14.1%. For the same molecule, the activation at 0.8 µM (log [nateglinide] (M) -6.09691, MRGPRX4+RAMP2 0.75pg 1:0.75, Supplementary Figure 5e, read-out: IP1 accumulation (normalized)) was 9.77%, the activation at 0.8 µM (log [nateglinide] (M) -6.09691, MRGPRX4+RAMP2 1pg 1:1, Supplementary Figure 5e, 5g, read-out: IP1 accumulation (normalized)) was 5.12% and the activation at […] (log [nateglinide] (M) -6.79588, MRGPRX4+RAMP2 0.5pg 1:0.5, Supplementary Figure 5e, read-out: IP1 accumulation (normalized)) was 8.46%. For the same molecule, the activation at […] (log [nateglinide] (M) -6.79588, MRGPRX4+RAMP2 0.75pg 1:0.75, Supplementary Figure 5e, read-out: IP1 accumulation (normalized)) was 6.53%, the activation at […] (log [nateglinide] (M) -6.79588, MRGPRX4+RAMP2 1pg 1:1, Supplementary Figure 5e, 5g, read-out: IP1 accumulation (normalized)) was 3.5% and the activation at 0.032 µM (log [nateglinide] (M) -7.49485, MRGPRX4+RAMP2 0.5pg 1:0.5, Supplementary Figure 5e, read-out: IP1 accumulation (normalized)) was 8.31%. The activation at 0.032 µM (log [nateglinide] (M) -7.49485, MRGPRX4+RAMP2 0.75pg 1:0.75, Supplementary Figure 5e, read-out: IP1 accumulation (normalized)) was 6.16%, the activation at 0.032 µM (log [nateglinide] (M) -7.49485, MRGPRX4+RAMP2 1pg 1:1, Supplementary Figure 5e, 5g, read-out: IP1 accumulation (normalized)) was 3.54% and the activation at 100 µM (ratio MRGPRX4:RAMP2 1:0.25, log [Nateglinide] (M) -4, Fig S3b, read-out: IP1 accumulation) was 98.8%. It also gave an activation at 20 µM (ratio MRGPRX4:RAMP2 1:0.25, log [Nateglinide] (M) -4.69897, Fig S3b, read-out: IP1 accumulation) of 58.9%, an activation at 4 µM (ratio MRGPRX4:RAMP2 1:0.25, log [Nateglinide] (M) -5.39794, Fig S3b, read-out: IP1 accumulation) of 38% and an activation at 0.8 µM (ratio MRGPRX4:RAMP2 1:0.25, log [Nateglinide] (M) -6.09691, Fig S3b, read-out: IP1 accumulation) of 25.5%. The activation at […] (ratio MRGPRX4:RAMP2 1:0.25, log [Nateglinide] (M) -6.79588, Fig S3b, read-out: IP1 accumulation) was 22.6%, the activation at 0.032 µM (ratio MRGPRX4:RAMP2 1:0.25, log [Nateglinide] (M) -7.49485, Fig S3b, read-out: IP1 accumulation) was 20.5% and the activation at 100 µM (ratio MRGPRX4:RAMP2 1:0.5, log [Nateglinide] (M) -4, Fig S3b, read-out: IP1 accumulation) was 67.8%. It also gave an activation at 20 µM (ratio MRGPRX4:RAMP2 1:0.5, log [Nateglinide] (M) -4.69897, Fig S3b, read-out: IP1 accumulation) of 62.1%, an activation at 4 µM (ratio MRGPRX4:RAMP2 1:0.5, log [Nateglinide] (M) -5.39794, Fig S3b, read-out: IP1 accumulation) of 36.6% and an activation at 0.8 µM (ratio MRGPRX4:RAMP2 1:0.5, log [Nateglinide] (M) -6.09691, Fig S3b, read-out: IP1 accumulation) of 20.3%. For the same molecule, the activation at […] (ratio MRGPRX4:RAMP2 1:0.5, log [Nateglinide] (M) -6.79588, Fig S3b, read-out: IP1 accumulation) was 15.7%, the activation at 0.032 µM (ratio MRGPRX4:RAMP2 1:0.5, log [Nateglinide] (M) -7.49485, Fig S3b, read-out: IP1 accumulation) was 15.3% and the activation at 100 µM (ratio MRGPRX4:RAMP2 1:1, log [Nateglinide] (M) -4, Fig S3b, read-out: IP1 accumulation) was 40.5%. The activation at 20 µM (ratio MRGPRX4:RAMP2 1:1, log [Nateglinide] (M) -4.69897, Fig S3b, read-out: IP1 accumulation) was 43.2%, the activation at 4 µM (ratio MRGPRX4:RAMP2 1:1, log [Nateglinide] (M) -5.39794, Fig S3b, read-out: IP1 accumulation) was 21.9% and the activation at 0.8 µM (ratio MRGPRX4:RAMP2 1:1, log [Nateglinide] (M) -6.09691, Fig S3b, read-out: IP1 accumulation) was 14.1%. It also gave an activation at […] (ratio MRGPRX4:RAMP2 1:1, log [Nateglinide] (M) -6.79588, Fig S3b, read-out: IP1 accumulation) of 11.3%, an activation at 0.032 µM (ratio MRGPRX4:RAMP2 1:1, log [Nateglinide] (M) -7.49485, Fig S3b, read-out: IP1 accumulation) of 11.1% and an activation at 100 µM (ratio MRGPRX4:RAMP2 1:2, log [Nateglinide] (M) -4, Fig S3b, read-out: IP1 accumulation) of 28%. The activation at 20 µM (ratio MRGPRX4:RAMP2 1:2, log [Nateglinide] (M) -4.69897, Fig S3b, read-out: IP1 accumulation) was 15.2%, the activation at 4 µM (ratio MRGPRX4:RAMP2 1:2, log [Nateglinide] (M) -5.39794, Fig S3b, read-out: IP1 accumulation) was 6.45% and the activation at 0.8 µM (ratio MRGPRX4:RAMP2 1:2, log [Nateglinide] (M) -6.09691, Fig S3b, read-out: IP1 accumulation) was 4.89%. The activation at […] (ratio MRGPRX4:RAMP2 1:2, log [Nateglinide] (M) -6.79588, Fig S3b, read-out: IP1 accumulation) was 3.86%, the activation at 0.032 µM (ratio MRGPRX4:RAMP2 1:2, log [Nateglinide] (M) -7.49485, Fig S3b, read-out: IP1 accumulation) was 3.91% and the Emax (Figure 4a bottom, DNA ratio MRGPRX4:RAMP2 1:1, MRGPRX4 alone = 100, read-out: efficacy) was 35.1%. For the same molecule, the EC50 (Figure 4a top, DNA ratio MRGPRX4:RAMP2 1:0.25, individual replicates, read-out: potency (converted)) was 9.57 µM and 9.23 µM (2×), the EC50 (Figure 4a top, DNA ratio MRGPRX4:RAMP2 1:0.5, individual replicates, read-out: potency (converted)) was 15.1 µM and 11.3 µM and 13.1 µM and the EC50 (Figure 4a top, DNA ratio MRGPRX4:RAMP2 1:0.75, individual replicates, read-out: potency (converted)) was 15.4 µM and 13.9 µM and 10.4 µM. For the same molecule, the EC50 (Figure 4a top, DNA ratio MRGPRX4:RAMP2 1:1, individual replicates, read-out: potency (converted)) was 39.9 µM and 19.4 µM and 24.3 µM, the “response to agonist, X4:ramp2.I:0.25” value (Figure 4c-f, agonist 100µM, X4:ramp2 1:0.25, MRGPRX4 = 100) was 71.8475 and 74.3589 and the “response to agonist, X4:ramp2.I:0.5” value (Figure 4c-f, agonist 100µM, X4:ramp2 1:0.5, MRGPRX4 = 100) was 61.7207 and 60.1764. The “response to agonist, X4:ramp2.I:1” value (Figure 4c-f, agonist 100µM, X4:ramp2 1:1, MRGPRX4 = 100) was 42.7283 and 40.01, the “response to agonist, X4:ramp2.I:2” value (Figure 4c-f, agonist 100µM, X4:ramp2 1:2, MRGPRX4 = 100) was 16.754 and 20.2407 and the “IP1 Basal” value [1] was 16.83. It also gave an IP1 span (Emax minus basal) [1] of 84.5%, an EC50 (MRGPRX4 + RAMP2 0.25 pg (Fig. S3), normalized per agonist, read-out: IP1 EC50) of 11.8 µM and an Emax (MRGPRX4 + RAMP2 0.25 pg (Fig. S3), normalized per agonist, read-out: IP1 Emax) of 101%. The “IP1 Basal” value [2] was 13.85, the IP1 span (Emax minus basal) [2] was 55.7% and the Emax (MRGPRX4 + RAMP2 0.5 pg (Fig. S3), normalized per agonist, read-out: IP1 Emax) was 69.5%. For the same molecule, the EC50 (MRGPRX4 + RAMP2 0.5 pg (Fig. S3), normalized per agonist, read-out: IP1 logEC50 (converted)) was 6.68 µM, the “IP1 Basal” value [3] was 8.724 and the IP1 span (Emax minus basal) [3] was 37.8%. For the same molecule, the Emax (MRGPRX4 + RAMP2 1 pg (Fig. S3), normalized per agonist, read-out: IP1 Emax) was 46.5%, the EC50 (MRGPRX4 + RAMP2 1 pg (Fig. S3), normalized per agonist, read-out: IP1 logEC50 (converted)) was 9.29 µM and the “IP1 Basal” value [4] was 3.623. It also gave an IP1 span (Emax minus basal) [4] of 25.2%, an EC50 (MRGPRX4 + RAMP2 2 pg (Fig. S3), normalized per agonist, read-out: IP1 EC50) of 26.6 µM and an Emax (MRGPRX4 + RAMP2 2 pg (Fig. S3), normalized per agonist, read-out: IP1 Emax) of 28.8%. The “IP1 Basal” value [5] was 7.610, the IP1 span (Emax minus basal) [5] was 68% and the EC50 (Tet-On MRGPRX4:RAMP2 Ratio 1:0.5 (Fig. S5E), read-out: IP1 EC50) was 8.76 µM. The Emax (Tet-On MRGPRX4:RAMP2 Ratio 1:0.5 (Fig. S5E), read-out: IP1 Emax) was 75.6%, the “IP1 Basal” value [6] was 4.862 and the IP1 span (Emax minus basal) [6] was 63.1%. For the same molecule, the EC50 (Tet-On MRGPRX4:RAMP2 Ratio 1:0.75 (Fig. S5E), read-out: IP1 EC50) was 10.5 µM, the Emax (Tet-On MRGPRX4:RAMP2 Ratio 1:0.75 (Fig. S5E), read-out: IP1 Emax) was 67.9% and the EC50 (Tet-On MRGPRX4:RAMP2 Ratio 1:0.75 (Fig. S5E), read-out: IP1 logEC50 (converted)) was 10.5 µM. For the same molecule, the “IP1 Basal” value [7] was 3.554, the IP1 span (Emax minus basal) [7] was 52.2% and the EC50 (Tet-On MRGPRX4:RAMP2 Ratio 1:1 (Fig. S5E), read-out: IP1 EC50) was 16.7 µM. The Emax (Tet-On MRGPRX4:RAMP2 Ratio 1:1 (Fig. S5E), read-out: IP1 Emax) was 55.7%, the “IP1 accumulation (normalized)” value (log [nateglinide] (M) -4, MRGPRX4+RAMP2 1pg 1:1, Supplementary Figure 5e, 5g) was 49.0479 and 42.2633 and 46.2108 and the “IP1 accumulation (normalized)” value (log [nateglinide] (M) -4.69897, MRGPRX4+RAMP2 1pg 1:1, Supplementary Figure 5e, 5g) was 35.8073 and 28.8485 and 29.8595. For the same molecule, the “IP1 accumulation (normalized)” value (log [nateglinide] (M) -5.39794, MRGPRX4+RAMP2 1pg 1:1, Supplementary Figure 5e, 5g) was 15.3369 and 12.9717 and 15.4367 and the “IP1 accumulation (normalized)” value (log [nateglinide] (M) -6.09691, MRGPRX4+RAMP2 1pg 1:1, Supplementary Figure 5e, 5g) was 5.582 and 4.886 and 4.986.
